The subject of the first assay is A427 cells. Briefly: Cytotoxicity assay in A427 cell line (resazurin, 72 hr). The assay is classed as cell-based. The note with it: Homo sapiens, A-427; A427 lung epithelial cell line, 72 hr incubation, inhibition of proliferation. The procedure:
A427 (HTB-53; ATCC), a lung epithelial cell line, was seeded in medium (MEM, 41090101; Gibco) at a cell count of 1500 cells per 100 μL per well in a 96 well edge plate (167425; ThermoFisher). Cells were allowed to grow at 37° C. for 24 hr in 5% CO2 environment (culture conditions) in a Nuaire incubator (humidified). Serially diluted test compounds (100 μL) within the desired testing concentration ranges were added to the culture plate and the cells further incubated in culture conditions for 72 hr. The experiment was terminated at the designated incubation time by replacing the medium with 100 μL of 1 mM of resazurin (R7017; Sigma) prepared in culture medium, and the plates were further incubated in culture conditions for 4-6 hr. Fluorescence was recorded using a multimodal plate reader (Biotek Synergy Neo) at an excitation wavelength of 535 nm and emission wavelength of 590 nm to obtain relative fluorescence units. Data were analysed as follows: the background fluorescence (blank containing only medium) value was subtracted from each reading and normalized with the vehicle control (DMSO treated cells) to obtain percent survival/proliferation. […] Potency of compounds in other cell lines (such as A549, As-Pc-1, Panc-10.05, MDA-MB-231, A172, U-87MG) may be determined in an analogous manner.
A general note: The colour change of resazurin is a common sign of viable cells or microbes.
Take `CC(C)N1CCc2ccc(Nc3ncc4c(n3)OCN(c3c(Cl)cccc3Cl)C4=O)cc2C1` [Compound No. 1.43, 3-(2,6-dichlorophenyl)-7-((2-isopropyl-1,2,3,4-tetrahydroisoquinolin-7-yl)amino)-2,3-dihydro-4H-pyrimido[5,4-e][1,3]oxazin-4-one]: the half-maximal inhibitory concentration (IC50) is 5500 nM.

The target of a further assay is T1, WEE1 kinase enzyme (Homo sapiens, UniProt P30291).
T1 construct: purchased Invitrogen, Life Technologies PR7373A
T1 sequence (P30291 whole entry): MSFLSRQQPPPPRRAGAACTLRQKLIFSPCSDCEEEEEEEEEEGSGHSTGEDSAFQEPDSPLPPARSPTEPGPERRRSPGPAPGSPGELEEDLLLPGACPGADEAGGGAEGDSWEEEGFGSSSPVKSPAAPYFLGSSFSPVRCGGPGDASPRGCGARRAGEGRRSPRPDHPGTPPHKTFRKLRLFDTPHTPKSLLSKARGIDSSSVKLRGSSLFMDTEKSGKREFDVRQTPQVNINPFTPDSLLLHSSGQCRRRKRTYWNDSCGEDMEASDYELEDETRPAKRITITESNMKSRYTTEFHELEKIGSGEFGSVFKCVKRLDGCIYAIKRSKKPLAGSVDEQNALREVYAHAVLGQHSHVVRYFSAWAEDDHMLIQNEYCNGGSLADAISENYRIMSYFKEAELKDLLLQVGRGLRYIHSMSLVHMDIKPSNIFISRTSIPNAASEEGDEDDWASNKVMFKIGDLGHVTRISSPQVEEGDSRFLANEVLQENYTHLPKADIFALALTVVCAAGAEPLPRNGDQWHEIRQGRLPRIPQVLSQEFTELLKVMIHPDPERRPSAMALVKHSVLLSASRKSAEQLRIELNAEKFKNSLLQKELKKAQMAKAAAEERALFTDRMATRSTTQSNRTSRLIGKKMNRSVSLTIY
Briefly: WEE1 IC50 determination, LanthaScreen Terbium Labeled TR-FRET kinase assay. It counts as biochemical. The conditions noted are these: WEE1 Enzyme 1 nM, ATP 10 μM, fluorescent-PolyGT substrate 200 nM, 1 h. On the procedure: IC50 values of the compounds against WEE1 kinase enzyme were determined by LanthaScreen™ Terbium Labeled TR-FRET assay. Kinase assays were performed in 1× kinase buffer (#PV6135, Invitrogen, Life Technologies, Grand Island, N.Y.) where total reaction volume was 10 μL in low-volume 384-well plates (#4511, Corning). Serially diluted compounds (3-fold) were incubated with WEE1 Enzyme (1 nM) (#PR7373A, Invitrogen, Life Technologies, Grand Island, N.Y.) for 10 min; a mixture of ATP (10 μM) (#A1852, Sigma, St. Louis, Mo.) and fluorescent-PolyGT substrate (200 nM) (#PV3610, Invitrogen, Life Technologies, Grand Island, N.Y.) was added and incubated in dark at room temperature for 1 h. After 1 h, 10 μL stop solution containing terbium labeled antibody (4 nM) (#PV3529, Invitrogen, Life Technologies, Grand Island, N.Y.) and EDTA (#E5134, Sigma, St. Louis, Mo.) (20 mM) in TR-FRET dilution buffer (#PV3574, Invitrogen, Life Technologies, Grand Island, N.Y.) were added. Readings were taken in a Synergy Neo plate reader (BioTek, Winooski, Vt.) at single excitation of 340 nm and dual emission at 495 nm and 520 nm respectively.
The % activity of test samples was calculated as (Sample−Min)*100/(Max−Min). [Max: DMSO control, complete reaction with enzyme & DMSO and Min: No enzyme & DMSO]. Percent inhibition (100-% activity) was fitted to the “four-parameter logistic model” in XLfit for determination of IC50 values.
(In general: In TR-FRET formats the signal depends on donor and acceptor labels being close together.)
As for `CN(C)CC(=O)N1CCc2cc(Nc3ncc4c(n3)OCN(c3c(Cl)cccc3Cl)C4=O)ccc2C1` [1.37, 3-(2,6-dichlorophenyl)-7-(2-(2-(dimethylamino)acetyl)-1,2,3,4-tetrahydroisoquinolin-6-ylamino)-2H-pyrimido[5,4-e][1,3]oxazin-4 (3H)-one], the half-inhibitory concentration (IC50) is 145 nM.
Still for that read-out and setting: in the case of `CN(C)CC(=O)N1CCc2cc(Nc3ncc4c(n3)OCN(c3c(Cl)cccc3Cl)C4=O)ccc2C1(C)C` [1.48, 3-(2,6-dichlorophenyl)-7-((2-(dimethylglycyl)-1,1-dimethyl-1,2,3,4-tetrahydroisoquinolin-6-yl)amino)-2,3-dihydro-4H-pyrimido[5,4-e][1,3]oxazin-4-one] it was 125 nM; in that of `CC(C)N1CCc2cc(Nc3ncc4c(n3)OCN(c3c(Cl)cccc3Cl)C4=O)ccc2C1` [Compound No. 1.40, 3-(2,6-dichlorophenyl)-7-((2-isopropyl-1,2,3,4-tetrahydroisoquinolin-6-yl)amino)-2,3-dihydro-4H-pyrimido[5,4-e][1,3]oxazin-4-one], 206 nM.
The same measure, in the same setting: in the case of `CC(C)N1CCc2ccc(Nc3ncc4c(n3)OCN(c3c(Cl)cccc3Cl)C4=O)cc2C1` [Compound No. 1.43, 3-(2,6-dichlorophenyl)-7-((2-isopropyl-1,2,3,4-tetrahydroisoquinolin-7-yl)amino)-2,3-dihydro-4H-pyrimido[5,4-e][1,3]oxazin-4-one] it was 21 nM; in that of `CN(C)CC(=O)N1CCc2ccc(Nc3ncc4c(n3)OCN(c3c(Cl)cccc3Cl)C4=O)cc2C1` [Compound No. 1.44, 3-(2,6-dichlorophenyl)-7-((2-(dimethylglycyl)-1,2,3,4-tetrahydroisoquinolin-7-yl)amino)-2,3-dihydro-4H-pyrimido[5,4-e][1,3]oxazin-4-one], 225 nM.

As a reminder, the IC50 is the concentration that gives 50% inhibition.

The values are drawn from patent publication US20220168313A1, “HETEROCYCLIC COMPOUNDS AND USES THEREOF” (Nuvation Bio Inc., priority 2019, published 2022).
